For this data set, the system named is fungi and bacteria on leaf explants. The data set is described as follows: Leaf disinfection of cacao leaf explants (hypochlorite under vacuum). Set-up: species or system Theobroma cacao; cacao leaf disinfection: dose or concentration left out as unconfirmed. The protocol:
The leaves were cleaned with soap and rinsed with distilled sterile water for three times. Afterwards, the leaves were cut in pieces in sizes of 2 cm^2, disinfected by immersion in alcohol 70% for five minutes, and rinsed three times with ultrapure sterile water. Then, the leaf explants were immersed in 1% calcium hypochlorite or 20% sodium hypochlorite for 50-60 minutes in vacuum condition (70 k-pascal) and rinsed 3-5 times with ultrapure sterile water.

This note sets out measurements from patent publication US11925166B2, “Cacao cell suspension protocol” (Mars, Incorporated, priority 2019, dated 2024).

Regarding `[Ca+2].[O-]Cl.[O-]Cl` [calcium hypochlorite], the “leaf death after disinfection” value (high concentration of calcium hypochlorite) is listed as “high percentage of leaf death”. Further, for the setting “low concentration of calcium hypochlorite for 40 minutes, with vacuum”, the cacao leaf disinfection result was “best treatment for cacao leaf disinfection”.
